Laboratory results: PubChem BioAssay (NCI)
Where “and” joins values, the source holds several entries; their conditions need not be identical. Identical values can stand only once.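 Dose response: 5 concentrations. Exposure: 48 h. Format: 96-well plates. Endpoint: linear interpolation; highest concentration if not reached. Here, GI50 denotes the concentration required for 50% inhibition of growth. TGI denotes the concentration required for complete inhibition of growth.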 Numbered stars: 1 amine (or outer) side, 2 acyl side, 3 side chain; on linkers, the order of the positions; unused ones are H or OH. Bridge positions count the residues as written; N and C are the ends. Square brackets hold non-standard residues; d marks the D form. Peptide text beside a SMILES is read from it. I, II: the chains in the order shown. Actinocin(1to9) = Cc1c2oc3c(C)ccc(C(=O)[*:2])c3nc-2c(C(=O)[*:1])c(N)c1=O; NMeV = CN[CH](C(=O)O)C(C)C; Sar = CNCC(=O)O

Columns and labels:
Assay in all cases: DTP human tumour cell line panel, 48 h
SK-MEL-5 melanoma = system: SK-MEL-5 melanoma
TK-10 renal = system: TK-10 renal
K-562 leukemia = system: K-562 leukemia
NCI-H23 lung = system: NCI-H23 lung
SK-MEL-28 melanoma = system: SK-MEL-28 melanoma
SF-268 CNS = system: SF-268 CNS
CAKI-1 renal = system: CAKI-1 renal
HCT-15 colon = system: HCT-15 colon
IGROV1 ovarian = system: IGROV1 ovarian
NCI/ADR-RES ovarian = system: NCI/ADR-RES ovarian

COC1=CC(=O)C2C(C1=O)[C@@H]1c3ccccc3OC[C@H]21 (stereo partly drawn)
TGI (SK-MEL-5 melanoma): > 100 µM
TGI (TK-10 renal): > 100 µM
TGI (K-562 leukemia): > 100 µM
TGI (NCI-H23 lung): > 100 µM
TGI (SK-MEL-28 melanoma): > 100 µM
TGI (SF-268 CNS): > 100 µM
TGI (CAKI-1 renal): > 100 µM

CCC(C)C1NC(=O)C(NC(=O)c2c3nc4c(C(=O)NC5C(=O)NC(C(C)C)C(=O)N6CCCC6C(=O)N(C)CC(=O)N(C)C(C(C)C)C(=O)OC5C)ccc(C)c4oc-3c(C)c(=O)c2N)C(C)OC(=O)C(C(C)C)N(C)C(=O)CN(C)C(=O)C2CCCN2C1=O (stereo not drawn) (I: TIP[Sar][NMeV] / II: TVP[Sar][NMeV]; ester I:1-I:C, II:1-II:C; linker I:N-II:N via Actinocin(1to9); configuration not given here)
TGI (SK-MEL-5 melanoma): 0.111 µM
TGI (HCT-15 colon): 14.2 µM
TGI (TK-10 renal): 17.9 µM
TGI (K-562 leukemia): 0.105 µM
TGI (NCI-H23 lung): 0.0553 µM and 0.0126 µM
TGI (SK-MEL-28 melanoma): 0.0409 µM
TGI (IGROV1 ovarian): 0.906 µM
GI50 (NCI/ADR-RES ovarian): 23.9 nM
TGI (NCI/ADR-RES ovarian): 3.56 µM

CCCC(=O)Oc1cc(OC(=O)CCC)c2c(C)cc(=O)oc2c1
TGI (SK-MEL-5 melanoma): > 100 µM
TGI (HCT-15 colon): > 100 µM
TGI (TK-10 renal): > 100 µM
TGI (K-562 leukemia): > 100 µM
TGI (NCI-H23 lung): > 100 µM
TGI (SK-MEL-28 melanoma): > 100 µM
TGI (IGROV1 ovarian): > 100 µM
TGI (NCI/ADR-RES ovarian): > 100 µM
TGI (SF-268 CNS): > 100 µM

CCN1CCC(O)(/C=C/c2ccc(Cl)cc2)C(C(=O)/C=C/c2ccc(Cl)cc2)C1 (stereo not drawn)
TGI (SK-MEL-5 melanoma): 28.3 µM
TGI (HCT-15 colon): 46.4 µM
TGI (TK-10 renal): > 100 µM
TGI (K-562 leukemia): > 100 µM
TGI (NCI-H23 lung): 45.6 µM
TGI (SK-MEL-28 melanoma): 57 µM
TGI (IGROV1 ovarian): 62.6 µM
TGI (SF-268 CNS): > 100 µM

O=c1cc(-c2cccc(Br)c2)[nH]c2cc3c(cc12)OCO3
TGI (SK-MEL-5 melanoma): 9.73 µM
TGI (HCT-15 colon): > 77.6 µM
TGI (TK-10 renal): 28.6 µM
TGI (K-562 leukemia): > 100 µM
TGI (NCI-H23 lung): 12.8 µM
TGI (SK-MEL-28 melanoma): > 100 µM
TGI (IGROV1 ovarian): 11.8 µM
TGI (NCI/ADR-RES ovarian): 30.7 µM
TGI (SF-268 CNS): 24 µM

C/C=C1/C(=O)O[C@]23C=C[C@@H]4C(C(=O)OC)=CO[C@H](O[C@@H]12)[C@@H]43
TGI (SK-MEL-5 melanoma): 4.2 µM
TGI (HCT-15 colon): 4.66 µM
TGI (K-562 leukemia): 7.93 µM
TGI (NCI-H23 lung): 3.51 µM
TGI (SK-MEL-28 melanoma): 7.63 µM
TGI (IGROV1 ovarian): 4.88 µM
TGI (NCI/ADR-RES ovarian): 6.37 µM
TGI (SF-268 CNS): 5.62 µM
TGI (CAKI-1 renal): 3.21 µM

OCC1(CNc2cc(Cl)ncn2)CCC1
TGI (SK-MEL-5 melanoma): > 100 µM
TGI (HCT-15 colon): > 100 µM
TGI (TK-10 renal): > 100 µM
TGI (K-562 leukemia): > 100 µM
TGI (NCI-H23 lung): > 100 µM
TGI (SK-MEL-28 melanoma): > 100 µM
TGI (IGROV1 ovarian): > 100 µM
TGI (NCI/ADR-RES ovarian): > 100 µM
TGI (SF-268 CNS): > 100 µM

CC(=O)c1cccc(NC(=O)/C(=N\NC(=S)NN)C2C(=O)Nc3ccccc3S2=O)c1 (stereo not drawn)
TGI (SK-MEL-5 melanoma): > 100 µM
TGI (TK-10 renal): > 100 µM
TGI (K-562 leukemia): > 100 µM
TGI (NCI-H23 lung): > 100 µM
TGI (SK-MEL-28 melanoma): > 100 µM
TGI (IGROV1 ovarian): > 100 µM
TGI (NCI/ADR-RES ovarian): > 100 µM
TGI (SF-268 CNS): > 100 µM
TGI (CAKI-1 renal): > 100 µM

O=C1Cc2c([nH]c3cc(Br)ccc23)-c2ccccc2N1
TGI (SK-MEL-5 melanoma): 38.9 µM
TGI (HCT-15 colon): 25.2 µM
TGI (TK-10 renal): 87.3 µM
TGI (K-562 leukemia): > 100 µM
TGI (NCI-H23 lung): > 100 µM
TGI (SK-MEL-28 melanoma): > 100 µM
TGI (IGROV1 ovarian): 99.7 µM
TGI (SF-268 CNS): 89.9 µM

CCOC(=O)C1C(=O)c2cccc(OC)c2C2COC(=O)N12 (stereo not drawn)
TGI (SK-MEL-5 melanoma): > 100 µM
TGI (HCT-15 colon): > 100 µM
TGI (TK-10 renal): > 100 µM
TGI (K-562 leukemia): > 100 µM
TGI (NCI-H23 lung): > 100 µM
TGI (SK-MEL-28 melanoma): > 100 µM
TGI (IGROV1 ovarian): > 100 µM
TGI (SF-268 CNS): > 100 µM

COc1ccc(/C=C/C(=O)/C=C(/C=C/c2ccc(OC)c(OC)c2OC)OB(F)F)c(OC)c1OC
GI50 (SK-MEL-5 melanoma): 1770 nM
TGI (SK-MEL-5 melanoma): 3.91 µM
GI50 (TK-10 renal): 9.03 µM
TGI (TK-10 renal): > 100 µM
GI50 (K-562 leukemia): 1280 nM
TGI (K-562 leukemia): > 100 µM
GI50 (IGROV1 ovarian): 1890 nM
TGI (IGROV1 ovarian): > 100 µM
GI50 (NCI/ADR-RES ovarian): 3280 nM
TGI (NCI/ADR-RES ovarian): > 100 µM
GI50 (SF-268 CNS): 2930 nM
TGI (SF-268 CNS): > 100 µM

Nc1nc2c(ncn2CC(CO)CC(c2ccccc2)P(=O)(O)O)c(=O)[nH]1 (stereo not drawn)
TGI (SK-MEL-5 melanoma): > 100 µM
TGI (HCT-15 colon): > 100 µM
TGI (TK-10 renal): > 100 µM
TGI (K-562 leukemia): > 100 µM
TGI (NCI-H23 lung): > 100 µM
TGI (SK-MEL-28 melanoma): > 100 µM
TGI (IGROV1 ovarian): > 100 µM
TGI (SF-268 CNS): > 100 µM
TGI (CAKI-1 renal): > 100 µM

CC1CC/C(=C\c2ccc(F)cc2)C2=C1C(c1ccc(F)cc1)n1c(s/c(=C\c3ccc(Cl)cc3)c1=O)=N2 (stereo not drawn)
TGI (SK-MEL-5 melanoma): > 100 µM
TGI (HCT-15 colon): > 100 µM
TGI (TK-10 renal): > 100 µM
TGI (K-562 leukemia): > 100 µM
TGI (SK-MEL-28 melanoma): > 100 µM
TGI (IGROV1 ovarian): > 100 µM
TGI (SF-268 CNS): > 100 µM
TGI (CAKI-1 renal): > 100 µM

O=C(N1CCN(c2ccccc2)CC1)N(C(=O)C1(c2ccc(Cl)cc2)CCCC1)S(=O)(=O)c1ccccc1
TGI (SK-MEL-5 melanoma): 40.7 µM
TGI (HCT-15 colon): 80.1 µM
TGI (TK-10 renal): > 100 µM
TGI (K-562 leukemia): > 100 µM
TGI (NCI-H23 lung): 69.1 µM
TGI (SK-MEL-28 melanoma): > 100 µM
TGI (NCI/ADR-RES ovarian): 70.8 µM
TGI (SF-268 CNS): > 100 µM
TGI (CAKI-1 renal): 71.4 µM

COc1cc2c(cc1O)N=C[C@@H]1CCC(O)N1C2=O (mixture of isomers)
TGI (SK-MEL-5 melanoma): 1.83 µM
TGI (HCT-15 colon): 6.44 µM
TGI (K-562 leukemia): 24.2 µM
TGI (NCI-H23 lung): 4.38 µM
TGI (SK-MEL-28 melanoma): 2.84 µM
TGI (IGROV1 ovarian): 75.5 µM
TGI (NCI/ADR-RES ovarian): 3.42 µM
TGI (SF-268 CNS): 6.25 µM
TGI (CAKI-1 renal): 11.7 µM

Cc1nc2c(s/c(=N\N)n2-c2ccccc2)c(=O)n1C
TGI (SK-MEL-5 melanoma): > 100 µM
TGI (HCT-15 colon): > 100 µM
TGI (TK-10 renal): > 100 µM
TGI (K-562 leukemia): > 100 µM
TGI (NCI-H23 lung): > 100 µM
TGI (SK-MEL-28 melanoma): > 100 µM
TGI (IGROV1 ovarian): > 100 µM
TGI (SF-268 CNS): > 100 µM
TGI (CAKI-1 renal): > 100 µM

O=c1ccc2nc3ccc(O)cc3oc-2c1
TGI (SK-MEL-5 melanoma): 2.95 µM
TGI (HCT-15 colon): > 100 µM
TGI (TK-10 renal): > 100 µM
TGI (K-562 leukemia): 34.7 µM
TGI (NCI-H23 lung): 14.3 µM
TGI (IGROV1 ovarian): > 100 µM
TGI (NCI/ADR-RES ovarian): > 100 µM
TGI (SF-268 CNS): > 100 µM
TGI (CAKI-1 renal): > 100 µM

CC(=O)Oc1ccc2c3c1[C@@H]1O[C@@H]1c1cccc(c1-3)[C@@H]1O[C@H]21
TGI (SK-MEL-5 melanoma): 3.56 µM
TGI (TK-10 renal): 6.12 µM
TGI (K-562 leukemia): > 100 µM
GI50 (NCI/ADR-RES ovarian): 1400 nM
TGI (NCI/ADR-RES ovarian): 3.76 µM
TGI (SF-268 CNS): 5.04 µM
TGI (CAKI-1 renal): 3.07 µM

COc1ccc(NC(C)=O)cc1N1C(=O)/C(=C\c2cccc(Oc3ccccc3)c2)SC1c1ccccc1 (stereo not drawn)
TGI (SK-MEL-5 melanoma): > 100 µM
TGI (HCT-15 colon): > 100 µM
TGI (TK-10 renal): > 100 µM
TGI (K-562 leukemia): > 100 µM
TGI (NCI-H23 lung): > 100 µM
TGI (SK-MEL-28 melanoma): > 100 µM
TGI (IGROV1 ovarian): > 100 µM
TGI (NCI/ADR-RES ovarian): 54.8 µM
TGI (CAKI-1 renal): > 100 µM

Fc1ccc(C(OCCN2CCC3CCC(C2)N3C/C=C/c2cccnc2)c2ccc(F)cc2)cc1 (stereo not drawn)
TGI (SK-MEL-5 melanoma): 14.9 µM
TGI (HCT-15 colon): 21.6 µM
TGI (TK-10 renal): 24 µM
TGI (NCI-H23 lung): 26.5 µM
TGI (SK-MEL-28 melanoma): 5.38 µM
TGI (IGROV1 ovarian): 27.1 µM
TGI (NCI/ADR-RES ovarian): 25.7 µM
TGI (SF-268 CNS): 26.2 µM
TGI (CAKI-1 renal): 26.1 µM

Cc1ccc(S(=O)(=O)NC(=O)NCC(=O)O)cc1
TGI (SK-MEL-5 melanoma): > 100 µM
TGI (HCT-15 colon): > 100 µM
TGI (TK-10 renal): > 100 µM
TGI (K-562 leukemia): > 100 µM
TGI (NCI-H23 lung): > 100 µM
TGI (SK-MEL-28 melanoma): > 100 µM
TGI (IGROV1 ovarian): > 100 µM
TGI (NCI/ADR-RES ovarian): > 100 µM
TGI (SF-268 CNS): > 100 µM

NCCSc1nc(N)c2ncn(C3OC(CO)C(O)C3O)c2n1 (stereo not drawn)
TGI (SK-MEL-5 melanoma): > 100 µM
TGI (HCT-15 colon): > 100 µM
TGI (TK-10 renal): > 100 µM
TGI (K-562 leukemia): > 100 µM
TGI (NCI-H23 lung): > 100 µM
TGI (SK-MEL-28 melanoma): > 100 µM
TGI (IGROV1 ovarian): > 100 µM
TGI (SF-268 CNS): > 100 µM
TGI (CAKI-1 renal): > 100 µM
